Source: paper PMC7612441 (The Febs Journal, 2021)

Experiments:
[1] = molecular target: T1, NUDT9 (Homo sapiens, UniProt Q9BW91); experiment: isothermal titration calorimetry, one-site fit; format: binding; conditions: Ca2+ (5 mM CaCl2) as cofactor, no hydrolysis; 20 mM HEPES pH 7.5, 150 mM NaCl, 20 °C
T1 sequence (Q9BW91 59-350): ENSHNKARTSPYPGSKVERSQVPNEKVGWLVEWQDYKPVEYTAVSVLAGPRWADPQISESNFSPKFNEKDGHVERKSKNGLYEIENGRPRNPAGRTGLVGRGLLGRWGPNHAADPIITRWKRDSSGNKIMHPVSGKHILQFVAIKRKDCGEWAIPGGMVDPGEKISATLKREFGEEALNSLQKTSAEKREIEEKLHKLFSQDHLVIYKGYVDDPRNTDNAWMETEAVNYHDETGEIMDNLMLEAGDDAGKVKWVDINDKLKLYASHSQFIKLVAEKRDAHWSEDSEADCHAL

[2] = molecular target: T2, NUDT9trC RIL (Homo sapiens, UniProt Q9BW91, E230I/F231L); experiment: isothermal titration calorimetry, one-site fit; format: binding; conditions: Mg2+ (5 mM MgCl2) as cofactor; 20 mM HEPES pH 7.5, 150 mM NaCl, 20 °C; catalytically inactive mutant
T2 sequence (Q9BW91 59-339 E230I/F231L): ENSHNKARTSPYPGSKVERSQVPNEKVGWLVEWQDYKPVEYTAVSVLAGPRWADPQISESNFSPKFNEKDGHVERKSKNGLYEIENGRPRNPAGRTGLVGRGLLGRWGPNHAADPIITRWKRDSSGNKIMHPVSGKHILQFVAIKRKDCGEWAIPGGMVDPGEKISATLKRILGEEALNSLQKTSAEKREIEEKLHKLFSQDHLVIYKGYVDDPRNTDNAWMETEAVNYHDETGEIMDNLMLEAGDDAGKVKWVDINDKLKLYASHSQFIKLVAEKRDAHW

Nc1ncnc2c1ncn2[C@@H]1O[C@H](COP(=O)(O)OP(=O)(O)OC[C@H]2OC(O)[C@H](O)[C@@H]2O)[C@@H](O)[C@H]1O (stereo partly shown) [ADPR]
Kd [1]: 12 ± 4 nM
Kd [2]: 16 ± 4 nM

Nc1ncnc2c1ncn2[C@H]1C[C@H](O)[C@@H](COP(=O)(O)OP(=O)(O)OC[C@H]2OC(O)[C@H](O)[C@@H]2O)O1 (stereo partly shown) [2′‐deoxy‐ADPR]
Kd [1]: 9 ± 2 nM
Kd [2]: 12 ± 7 nM
